The values that follow come from patent US20100035756A1, “TRIAZOLOPHYRIDINE DERIVATIVES AS HERBICIDES” (SYNGENTA LIMITED, priority 2006, published 2010).

Assay [1] concerns Monocotyledonous and dicotyledonous test plants. Description: Herbicidal action after emergence of the plants (post-emergence herbicidal action), Example B2. The following applies: postemergent application, 125 g/ha, 2- to 3-leaf stage, evaluated after 2-3 weeks, 100%=total damage. In kind it is in vivo. The procedure:
(§1) Monocotyledonous and dicotyledonous test plants are sown in seed trays in standard soil. When the test plants are at the 2- to 3-leaf stage, the test compounds are applied by spraying in the form of an aqueous suspension (prepared from a wettable powder (Example F3, b) according to WO 97/34485) or in the form of an emulsion (prepared from an emulsifiable concentrate (Example F1, c) according to WO 97/34485) in a concentration of 125 g/ha. The test plants are then grown on in a greenhouse under optimum conditions. After a 2- to 3-week test period, the test is evaluated (100%=total damage to plant; 0%=no damage to plant).

For assay [2] the test system is unchanged. The assay is described as follows: Herbicidal action prior to emergence of the plants (pre-emergence action), Example B1. In kind it is in vivo. The following applies: preemergence application, 250 g/ha, evaluated after 4 weeks, 100%=total damage, 0%=no damage. The procedure:
as §1, with “Immediately after sowing,” for “When the test plants are at the 2- to 3-leaf stage,”, “250” for “125”, “grown” for “grown on”, “4-week” for “2- to 3-week”, “plant; NC not evaluated).” for “plant).”

Consider `CC1(C)C(=O)C(C(=O)c2ccc(C(F)(F)F)n3c(-c4ccc(Cl)cc4)nnc23)=C(O)C(C)(C)C1=O` [Compound 5.10], for which, in assay [1], the “herbicidal damage, ABUTH” value is 80%; the “herbicidal damage, AMARE” value was found to be 80%; the “herbicidal damage, CHEAL” value was found to be 70%; the “herbicidal damage, DIGSA” value was 20%. Besides, in assay [1], the “herbicidal damage, SETFA” value is 30%; the “herbicidal damage, SINAR” value is recorded as 80%; the “herbicidal damage, VERPE” value is listed as 100%; the “herbicidal damage, XANST” value worked out at 80%. In addition, in assay [2], the “herbicidal damage, ABUTH” value worked out at 100%; the “herbicidal damage, AMARE” value came out at 100%; the “herbicidal damage, BRAPL” value was 20%; the “herbicidal damage, DIGSA” value amounted to 40%. For the same compound, in assay [2], the “herbicidal damage, ECHCG” value stood at 20%; the “herbicidal damage, SETFA” value was 0%; the “herbicidal damage, STEME” value was 30%.

Take `CCSc1nnc2c(C(=O)C3=C(O)C4CCC(C4)C3=O)ccc(C(F)(F)F)n12` (stereo not drawn) [Compound 1.212]: in assay [1], the “herbicidal damage, ABUTH” value is 80%; the “herbicidal damage, AMARE” value is recorded as 80%; the “herbicidal damage, CHEAL” value is listed as 80%; the “herbicidal damage, DIGSA” value was found to be 80%. Moreover, in assay [1], the “herbicidal damage, SETFA” value came out at 80%; the “herbicidal damage, SINAR” value was found to be 80%; the “herbicidal damage, VERPE” value is reported as 80%; the “herbicidal damage, XANST” value is listed as 80%. Also, in assay [2], the “herbicidal damage, ABUTH” value came to 70%; the “herbicidal damage, AMARE” value turned out to be 100%; the “herbicidal damage, BRAPL” value came out at 60%; the “herbicidal damage, DIGSA” value was determined as 70%. Also, in assay [2], the “herbicidal damage, ECHCG” value came to 50%; the “herbicidal damage, SETFA” value stood at 80%; the “herbicidal damage, STEME” value turned out to be 70%; the “herbicidal damage, VERPE” value is recorded as 0%.

On to `CC(C)c1nnc2c(C(=O)C3=C(O)C4CCC(C4)C3=O)ccc(C(F)(F)F)n12` (stereo not drawn) [Compound 1.7], for which, in assay [1], the “herbicidal damage, ABUTH” value is listed as 90%; the “herbicidal damage, AMARE” value was determined as 90%; the “herbicidal damage, CHEAL” value came out at 80%; the “herbicidal damage, DIGSA” value is 80%. In assay [1], the “herbicidal damage, SETFA” value came to 70%; the “herbicidal damage, SINAR” value was 80%; the “herbicidal damage, VERPE” value is 90%; the “herbicidal damage, XANST” value amounted to 80%. In assay [2], the “herbicidal damage, ABUTH” value is listed as 100%; the “herbicidal damage, AMARE” value is 100%; the “herbicidal damage, BRAPL” value is listed as 80%; the “herbicidal damage, DIGSA” value was determined as 100%. In assay [2], the “herbicidal damage, ECHCG” value was determined as 80%; the “herbicidal damage, SETFA” value was 80%; the “herbicidal damage, STEME” value turned out to be 100%; the “herbicidal damage, VERPE” value came out at 100%.

As to `O=C1CCCC(O)=C1C(=O)c1ccc(C(F)(F)F)n2c(Br)nnc12` [Compound 3.3], in assay [1], the “herbicidal damage, ABUTH” value is on record as 70%; the “herbicidal damage, AMARE” value was found to be 70%; the “herbicidal damage, CHEAL” value is listed as 80%; the “herbicidal damage, DIGSA” value was determined as 70%. In assay [1], the “herbicidal damage, SETFA” value is 30%; the “herbicidal damage, SINAR” value is reported as 70%; the “herbicidal damage, VERPE” value is reported as 80%; the “herbicidal damage, XANST” value was 80%. Besides, in assay [2], the “herbicidal damage, ABUTH” value was found to be 100%; the “herbicidal damage, AMARE” value is 100%; the “herbicidal damage, BRAPL” value is 0%; the “herbicidal damage, DIGSA” value was 0%. Further, in assay [2], the “herbicidal damage, ECHCG” value was determined as 0%; the “herbicidal damage, SETFA” value was 0%; the “herbicidal damage, STEME” value was 70%; the “herbicidal damage, VERPE” value was 30%.

On to `CC(C)c1nc2c(C(=O)C3=C(O)C4CCC(C4)C3=O)ccc(C(F)(F)F)n2n1` (stereo not drawn) [2.7], for which, in assay [1], the “herbicidal damage, ABUTH” value is listed as 70%; the “herbicidal damage, CHEAL” value is on record as 70%; the “herbicidal damage, DIGSA” value is 20%; the “herbicidal damage, SETFA” value is 20%. In assay [1], the “herbicidal damage, SINAR” value was 60%; the “herbicidal damage, VERPE” value is 10%; the “herbicidal damage, XANST” value came to 70%. In assay [2], the “herbicidal damage, ABUTH” value was 30%; the “herbicidal damage, AMARE” value came out at 20%; the “herbicidal damage, BRAPL” value is 0%; the “herbicidal damage, DIGSA” value amounted to 0%. Also, in assay [2], the “herbicidal damage, ECHCG” value was found to be 10%; the “herbicidal damage, SETFA” value was 0%; the “herbicidal damage, STEME” value is reported as 20%; the “herbicidal damage, VERPE” value is on record as 50%.
